Reference: US20030055065A1, “Tricyclic amide and urea compounds useful for inhibition of G-protein function and for treatment of proliferative diseases” (priority 1993, published 2003)
Where “and” joins values, the source holds several entries; their conditions need not be identical. Equal entries are not always repeated. Where two headings read alike, the source gives them in different places.

Experiments:
[1] = target: T1, farnesyl protein transferase (FPT), partially purified from rat brain (Rattus norvegicus, UniProt Q02293+Q04631); test: Inhibition of farnesyl protein transferase (transfer of [3H]farnesyl to Ras-CVLS); assay type: biochemical
T1 construct: were partially purified from rat brain by ammonium sulfate fractionation followed by Q-Sepharose
T1 sequence (Q02293 whole entry, one chain of several): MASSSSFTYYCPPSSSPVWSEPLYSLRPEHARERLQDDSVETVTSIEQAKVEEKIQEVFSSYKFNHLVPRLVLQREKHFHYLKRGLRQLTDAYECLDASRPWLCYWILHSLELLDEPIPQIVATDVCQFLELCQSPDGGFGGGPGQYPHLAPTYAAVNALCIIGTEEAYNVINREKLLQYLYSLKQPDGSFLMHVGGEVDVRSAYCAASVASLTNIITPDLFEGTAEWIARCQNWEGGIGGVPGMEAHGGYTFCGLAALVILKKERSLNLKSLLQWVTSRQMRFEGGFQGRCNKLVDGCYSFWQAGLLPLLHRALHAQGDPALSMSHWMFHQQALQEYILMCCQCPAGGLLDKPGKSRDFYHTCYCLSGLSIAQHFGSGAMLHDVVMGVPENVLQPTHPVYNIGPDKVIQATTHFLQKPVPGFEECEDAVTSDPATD
Outline: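 Partially purified farnesyl protein transferase with His6-tagged val12-Ha-Ras-CVLS substrate and [3H]farnesyl pyrophosphate, 30 min at room temperature. Stopped with SDS/TCA, precipitated Ras collected on GF/C filters; percent inhibition relative to DMSO vehicle control.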

[2] = target: T2, geranylgeranyl protein transferase (GGPT) I (Rattus norvegicus, UniProt P53610+Q04631); test: Inhibition of geranylgeranyl protein transferase I (Ras-CVLL as acceptor); assay type: biochemical; conditions: enzyme inhibition
T2 construct: were partially purified from rat brain by ammonium sulfate fractionation followed by Q-Sepharose
T2 sequence (P53610 whole entry, one chain of several): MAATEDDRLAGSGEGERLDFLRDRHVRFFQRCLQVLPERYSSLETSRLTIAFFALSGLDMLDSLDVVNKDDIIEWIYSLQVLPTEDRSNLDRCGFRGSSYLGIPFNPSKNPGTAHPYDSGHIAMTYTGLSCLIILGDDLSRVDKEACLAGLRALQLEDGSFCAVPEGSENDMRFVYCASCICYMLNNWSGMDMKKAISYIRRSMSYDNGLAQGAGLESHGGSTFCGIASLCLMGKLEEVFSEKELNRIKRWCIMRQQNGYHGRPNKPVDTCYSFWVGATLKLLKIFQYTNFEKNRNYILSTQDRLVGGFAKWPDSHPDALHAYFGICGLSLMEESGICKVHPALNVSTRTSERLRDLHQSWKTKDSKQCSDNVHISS
Description: 1. In vitro enzyme assays: Inhibition of farnesyl protein transferase and geranylgeranyl protein transferase.
Both farnesyl protein transferase (FPT) and geranylgeranyl protein transferase (GGPT) I were partially purified from rat brain by ammonium sulfate fractionation followed by Q-Sepharose (Pharmacia, Inc.) anion exchange chromatography essentially as described by Yokoyama et al (Yokoyama, K., et al., (1991), A protein geranylgeranyltransferase from bovine brain: Implications for protein prenylation specificity, Proc. Natl. Acad. Sci USA 88: 5302-5306, the disclosure of which is incorporated herein by reference thereto). Human farnesyl protein transferase was also expressed in E. coli, using cDNA clones encoding both the α and β subunits. The methods used were similar to those published (Omer, C. et al., (1993), Characterization of recombinant human farnesyl protein transferase: Cloning, expression, farnesyl diphosphate binding, and functional homology with yeast prenyl-protein transferases, Biochemistry 32:5167-5176). Human farnesyl protein transferase was partially-purified from the soluble protein fraction of E. coli as described above. […] Two forms of val^12-Ha-Ras protein were prepared as substrates for these enzymes, differing in their carboxy terminal sequence. One form terminated in cysteine-valine-leucine-serine (Ras-CVLS) the other in cystein-valine-leucine-leucine (Ras-CVLL). Ras-CVLS is a substrate for the farnesyl protein transferase while Ras-CVLL is a substrate for geranylgeranyl protein transferase I. The cDNAs encoding these proteins were constructed so that the proteins contain an amino-terminal extension of 6 histidine residues. Both proteins were expressed in Escherichia coli and purified using metal chelate affinity chromatography. The radiolabelled isoprenyl pyrophosphate substrates, [^3H]farnesyl pyrophosphate and [3H]geranylgeranyl pyrophosphate, were purchased from DuPont/New England Nuclear.
The geranylgeranyl protein transferase I assay was essentially identical to the farnesyl protein transferase assay described above, with two exceptions: [^3H]geranylgeranylpyrophosphate replaced farnesyl pyrophosphate as the isoprenoid donor and Ras-CVLL was the protein acceptor.

[3] = system: Ras-CVLS processing in COS monkey kidney cells; test: COS cell assay: Ras-CVLS processing (Western blot); assay type: cell-based; conditions: COS cells; for IC50: read-out: Inhibition of Ras Processing IC50
Description: 2. […] Effect of farnesyl protein transferase inhibitors on Ras processing and on disordered cell growth induced by transforming Ras. COS monkey kidney cells were transfected by electroporation with the plasmid pSV-SPORT (Gibco/BRL) containing a cDNA insert encoding either Ras-CVLS or Ras-CVLL, leading to transient overexpression of a Ras substrate for either farnesyl protein transferase or geranylgeranyl protein transferase I, respectively (see above). […] After 24 hours, media was removed and fresh media containing the appropriate drugs was re-added. 48 hours after electroporation cells were examined under the microscope to monitor disordered cell growth induced by transforming Ras. Cells expressing transforming Ras become more rounded and refractile and overgrow the monolayer, reminiscent of the transformed phenotype. […] Cells were lysed by homogenization and cell debris was removed by centrifugation at 2000×g for 10 min. Cellular protein was precipitated by addition of ice-cold trichloroacetic acid and redissolved in 100 μl of SDS-electrophoresis sample buffer. […] Proteins resolved on the gels were electroblotted onto nitrocellulose membranes for immunodetection. […] E., et al., (1982), Monoclonal antibodies to the p21 products of the transforming gene of Harvey murine sarcome virus and of the cellular ras gene family, J. Virol. 43: 294-304), in PBS containing 1% fetal calf serum for one hour at room temperature. After washing, membranes were incubated for one hour at room temperature with a 1:5000 dilution of secondary antibody, rabbit anti-rat IgG conjugated to horseradish peroxidase, in PBS containing 1% fetal calf serum.

[4] = system: T24-BAG4 human bladder carcinoma cells expressing an activated H-ras gene; test: Cell Mat Assay: tumor cell colony inhibition (tIC50); assay type: cell-based; conditions: inhibition of tumor cell growth
Outline: (§1)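 Serial compound dilutions added 24 h after planting T24-BAG4 cells onto a mat of normal cells, then 14 d colony growth; monolayers glutaraldehyde-fixed and tumor cells X-Gal stained. tIC50 and mIC50 from microscope counts of colonies, cells per colony and mat cell density.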

[5] = system: Normal human HEPM fibroblasts; test: Cell Mat Assay: density of mat cells (mIC50); assay type: cell-based
Outline: as §1

[6] = Ras-CVLS farnesylation, partially purified rat brain FPT, read-out: FPT IC50
[7] = enzyme inhibition, read-out: FPT IC50

IC50 [1, 6]	IC50 [1, 7]	IC50 ([4]; Homo sapiens) [µM]	Compound	IC50 ([3]; Primates, COS) [µM]	IC50 ([5]; Homo sapiens, Fibroblast) [µM]	further results
0.23 µM			O=C(Cc1ccncc1)N1CCC(=C2c3ccc(Br)cc3CCc3cccnc32)CC1 [Example 181]			IC50 [2]: > 42 µM
0.67 µM		18	O=C(Cc1ccc[n+]([O-])c1)N1CCC(C2c3ccc(Cl)cc3CCc3cccnc32)CC1 (stereo not shown) [Example 233]	10	> 50	
1.77 µM		12.5	O=C(Cc1cccnc1)N1CCC(=C2c3ccc(Cl)cc3C=Cc3cccnc32)CC1 [Example 276]	2.9	50	
1.5 µM		25	O=C(Cc1ccncc1)N1CCC(=C2c3ccc(Cl)cc3C(O)Cc3cccnc32)CC1 (stereo not shown) [Example 286]	8.3	> 50	
2.11 µM		18	O=C(Nc1ccccn1)N1CCC(=C2c3ccc(Cl)cc3CCc3cccnc32)CC1 [Example 294]	5.2	> 50	IC50 [3]: 2.8 µM
0.96 µM		< 3.1	CC(C)(C(=O)N1CCC(=C2c3ccc(Cl)cc3CCc3cccnc32)CC1)c1cccnc1 [Example 300]	2.6	> 50	
0.74 µM and 0.38 µM		1.6	CC(C)(C(=O)N1CCN(C2c3ccc(Cl)cc3CCc3cc(Br)cnc32)CC1)c1ccc[n+]([O-])c1 (stereo not shown) [Example 352]	2.2	> 25	
0.76 µM and 0.3 µM		6.25	CC(C)(C(=O)N1CCN(C2c3ccc(Cl)cc3CCc3cc(Br)cnc32)CC1)c1cccnc1 (stereo not shown) [Example 353]	0.9	> 25	
5 µM			O=C(Nc1cccnc1)N1CCC(C2c3ccccc3CCc3cccnc32)CC1 (stereo not shown) [Example 365]			IC50 [3]: 3.1 µM; IC50 [4]: 6.25 µM; IC50 [5]: > 50 µM
3.3 µM			O=C(Nc1ccccc1)N1CCC(C2c3ccccc3CCc3cccnc32)CC1 (stereo not shown) [Example 367]			IC50 [3]: 6.2 µM; IC50 [4]: 6.25 µM; IC50 [5]: > 50 µM
0.095 µM and 0.09 µM	0.095 µM and 0.09 µM	< 1.6	O=C(Cc1cc[n+]([O-])cc1)N1CCC(=C2c3ccc(Cl)cc3CCc3cc(Br)cnc32)CC1 [Example 400-L]	0.6	> 25	IC50 [3]: 0.65 µM; IC50 [4]: < 0.8 µM; IC50 [5]: > 12.5 µM
	0.59 µM	1.6	CC(C)(C(=O)N1CCC(=C2c3ccc(Cl)cc3CCc3cc(Br)cnc32)CC1)c1ccc[n+]([O-])c1 [Example 411-A]	0.7	> 25	
	0.32 µM	6.25	O=C(Cc1ccncc1)N1CCC(C2c3ccc(Cl)cc3C=Cc3cc([N+](=O)[O-])cnc32)CC1 (stereo not shown) [Example 411-B]	1.8	> 25	
	0.62 µM	8	CC(C)(C(=O)N1CCC(=C2c3ccc(Cl)cc3CCc3cc(Br)cnc32)CC1)c1cc[n+]([O-])cc1 [Example 411-D]	1.6	> 25	
	0.7 µM	6.25	O=C(Cc1ccc[n+]([O-])c1)N1CCC(=C2c3ccc(Cl)cc3CCc3cc(Br)cnc32)CC1 [Example 411-G]	5.1	> 25	IC50 [4]: 4 µM; IC50 [5]: > 12.5 µM
	1.85 µM	25	O=C1Cc2cccnc2C(=C2CCN(C(=O)Cc3cc[n+]([O-])cc3)CC2)c2ccc(Cl)cc21 [Example 418]	> 10	> 25	
	0.45 µM	> 3.1	CN1CCC(CC(=O)N2CCN(C3c4ccc(Cl)cc4CCc4c(Cl)ccnc43)CC2)CC1 (stereo not shown) [Example 425-P]	5.7	3.1	

Second part, the compound before the results:

Compound	IC50 [1, 6]	IC50 [1, 7]	IC50 ([4]; Homo sapiens) [µM]	IC50 ([3]; Primates, COS) [µM]	IC50 ([5]; Homo sapiens, Fibroblast) [µM]	further results
O=C(c1ccc(O)c(O)c1)N1CCC(=C2c3ccc(Cl)cc3CCc3cccnc32)CC1 [Example 8]	2.3 µM	2.3 µM				IC50 [2]: 42 µM
CN1CCCC(CC(=O)N2CCN(C3c4ccc(Cl)cc4CCc4cccnc43)CC2)C1 (stereo not shown) [Example 206]	1.19 µM		< 3.1	2.4	16	
COc1cnc2c(c1)CCc1cc(Cl)ccc1C2=C1CCN(C(=O)Cc2cccnc2)CC1 [Example 239, 4-(8-Chloro-3-methoxy-5,6-dihydro-11H-benzo[5,6]cyclohepta[1,2-b]pyridin-11-ylidene)-1-[(3-pyridinyl]acetyl]-piperidine]	1.75 µM		37	4.6	> 50	
O=C(Cc1cccnc1)N1CCC(C2c3ccc(Cl)cc3C=Cc3cccnc32)CC1 (stereo not shown) [Example 266]			3.1	0.77	6.25	IC50 ([1]; FPT IC50, Ras-CVLS farnesylation, partially purified rat brain FPT): 0.46 µM; IC50 ([3]; listed as 266 (5.138)): 0.89 µM
O=C1Cc2cc(Cl)ccc2C(=C2CCN(C(=O)Cc3ccncc3)CC2)c2ncccc21 [Example 281]	2.9 µM		4	7	> 50	
O=C1Cc2cccnc2C(=C2CCN(C(=O)Cc3cccnc3)CC2)c2ccc(Cl)cc21 [Example 283]	0.48 µM and 0.55 µM		10	5.6	> 50	
O=C1Cc2cccnc2C(=C2CCN(C(=O)Cc3ccncc3)CC2)c2ccc(Cl)cc21 [Example 285]	0.76 µM		12.5	5.2	> 50	IC50 ([3]; listed as 285 (5.153)): 10.1 µM
O=C(Nc1ccncc1)N1CCC(C2c3ccccc3CCc3cccnc32)CC1 (stereo not shown) [Example 366]	4 µM					IC50 [3]: 3.3 µM; IC50 [4]: 3.1 µM; IC50 [5]: > 50 µM
CC(C)(C(=O)N1CCC(=C2c3ccc(Cl)cc3CCc3cc(Br)cnc32)CC1)c1ccncc1 [Example 411]		0.32 µM	18	~1	> 25	Inhibition of Ras Processing at the concentration in parentheses ([3]; (5) μM): 93 (5)
CCc1cc2c(cc1Cl)C=Cc1cccnc1C2C1CCN(C(=O)Cc2ccncc2)CC1 (stereo not shown) [Example 417]		1.16 µM	10	4	18	
O=C(Cc1cc[n+]([O-])cc1)N1CCN([C@H]2c3ccc(Cl)cc3CCc3cccnc32)CC1 [Example 425-E]		0.49 µM	1.6	5	> 25	
CC(C)(C(=O)N1CCN(C2c3ccc(Cl)cc3CCc3cc(Br)cnc32)CC1)c1cc[n+]([O-])cc1 (stereo not shown) [Example 425-J]		0.39 µM	3.1	5	> 25	
O=C(Cc1cc[n+]([O-])cc1)N1CCN(C2c3ccc(Cl)cc3CCc3c(Cl)ccnc32)CC1 (stereo not shown) [Example 426-A]		0.33 µM	6.25	> 5	> 25	
